One block for each substance: values may come before it.
Columns and labels:
[1] = target: T1, Human neutrophil elastase (Homo sapiens, UniProt P08246); assay: IQF substrate hydrolysis kinetics with neutrophil elastase; assay type: biochemical; details: substrate 0.3-5 μM, 0.1 M HEPES, 0.5 M NaCl pH 7.5, 37 °C, mean of at least three, SD <10%
T1 construct: purchased Biocentrum (Krakow, Poland)
T1 sequence (P08246 30-267): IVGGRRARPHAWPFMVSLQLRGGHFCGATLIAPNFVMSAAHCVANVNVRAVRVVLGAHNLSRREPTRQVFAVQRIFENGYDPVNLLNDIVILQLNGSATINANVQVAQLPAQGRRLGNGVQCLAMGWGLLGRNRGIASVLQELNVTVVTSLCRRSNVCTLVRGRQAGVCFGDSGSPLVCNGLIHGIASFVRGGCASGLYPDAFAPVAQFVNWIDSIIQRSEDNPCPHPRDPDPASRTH
Experimental: (§1) All kinetic measurements were performed using a Spectra Max Gemini XPS spectrofluorimeter (Molecular Devices) at 37 °C. For the substrates with the new donor acceptor pair, ACC/DNP, the excitation wavelength was 355 nm, and the emission wavelength was 460 nm; for MCA/DNP, the corresponding values were 325 and 420 nm, respectively. The substrate concentrations were varied, and the enzyme concentration was kept constant in each assay; the total reaction volume was 100 μl. Measurements were conducted for 30 min, and only the linear part of the progress curve was used to determine the reaction velocity. The measurements were repeated, and the data presented are the average of at least three measurements. The catalytic parameters kcat and KM were established using GraphPad Prism software to directly fit the initial velocities and initial substrate concentrations to the Michaelis-Menten equation using non-linear regression analysis.
Assays with neutrophil elastase were performed in a buffer containing 0.1 M HEPES and 0.5 M NaCl at pH 7.5[9]. The enzyme was incubated in assay buffer for 10 min at 37 °C prior to the substrate addition and the measurement. For elastase, the concentration of substrates containing ACC ranged from 0.3 to 5 μM, and the enzyme concentration was 0.344 nM. The concentration of substrates containing MCA was ranged from 0.3 to 5 μM, and the enzyme concentration was 1.4 nM.

[2] = target: T2, caspase-3 (Homo sapiens, UniProt P42574); assay: IQF substrate hydrolysis kinetics with caspase-3; assay type: biochemical; details: substrate 1-50 μM, Pipes buffer pH 7.2-7.4, 37 °C, mean of at least three, SD <10%
T2 construct: made in house
T2 sequence (P42574 29-175 limits assumed): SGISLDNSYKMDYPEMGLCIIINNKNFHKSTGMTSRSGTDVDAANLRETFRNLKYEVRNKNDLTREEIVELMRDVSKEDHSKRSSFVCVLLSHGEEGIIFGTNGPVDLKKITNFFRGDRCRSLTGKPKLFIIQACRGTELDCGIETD
T2 sequence (P42574 176-277 limits assumed): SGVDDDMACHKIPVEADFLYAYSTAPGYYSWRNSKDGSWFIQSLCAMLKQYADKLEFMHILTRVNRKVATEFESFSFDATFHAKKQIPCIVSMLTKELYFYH
Experimental: as §1
(§2) Caspase assays were performed in a buffer containing 20 mM Pipes, 0.1 M NaCl, 1 mM EDTA, 10 mM DTT, and 10% (w/v) sucrose at pH 7.2 to 7.4[61]. The buffer used for caspase-8, caspase-9 and caspase-10 was supplemented with 1 M sodium citrate. Each caspase was incubated with assay buffer for 30 min at 37 °C before the substrates were added. For caspase-3, the concentration of substrates containing ACC or MCA on the measurement plate ranged from 1 to 50 μM, and the enzyme concentration ranged from 1 to 3 nM. For caspase-7, the concentration of substrates containing ACC or MCA on the measurement plate ranged from 1 to 50 μM, and the enzyme concentration ranged from 10 to 30 nM. For caspase-8, the concentration of a substrates containing ACC or MCA on the measurement plate ranged from 4 to 80 μM, and the enzyme concentration ranged from 20 to 50 nM.
(§3) To obtain further insight into the caspase P1-P1′ preferences, we determined the kinetic parameters for selected IQF substrates. The kinetic analysis was performed in a similar manner to that described above (Substrate Kinetics). The buffers used for caspase-8, caspase-9, and caspase-10 were supplemented with 1.0 M sodium citrate. The enzyme concentrations were as follows: caspase-3, 6 nM; caspase-7, 25 nM; caspase-8, 30–60 nM; caspase-9, 20–140 nM; and caspase-10, 25–125 nM. When testing initiator caspases, the higher enzyme concentration was used for non-optimal LEHE/X substrates.

[3] = target: T3, caspase-7 (Homo sapiens, UniProt P55210); assay: IQF substrate hydrolysis kinetics with caspase-7; assay type: biochemical; details: substrate 1-50 μM, Pipes buffer pH 7.2-7.4, 37 °C, mean of at least three, SD <10%
T3 construct: made in house
T3 sequence (P55210 24-198 limits assumed): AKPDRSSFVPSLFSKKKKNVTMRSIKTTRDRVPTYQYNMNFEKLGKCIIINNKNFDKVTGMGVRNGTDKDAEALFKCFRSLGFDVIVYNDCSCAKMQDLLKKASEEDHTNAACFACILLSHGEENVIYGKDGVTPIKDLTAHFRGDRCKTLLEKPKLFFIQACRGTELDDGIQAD
T3 sequence (P55210 207-303 limits assumed): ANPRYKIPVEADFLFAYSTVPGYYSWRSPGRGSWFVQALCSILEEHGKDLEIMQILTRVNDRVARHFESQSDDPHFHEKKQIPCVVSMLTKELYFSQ
Experimental: as §1, §2, §3

[4] = target: T4, caspase-8 (Homo sapiens, UniProt Q14790); assay: IQF substrate hydrolysis kinetics with caspase-8; assay type: biochemical; details: substrate 4-80 μM, Pipes buffer pH 7.2-7.4 with 1 M sodium citrate, 37 °C, mean of at least three, SD <10%
T4 construct: made in house
Experimental: as §1, §2, §3

[5] = tested on: caspase-3; assay: caspase-3 in caspase buffer, IQF library screening and kinetics; details: human, 37 °C, up to 30 min
[6] = tested on: caspase-7; assay: caspase-7 in caspase buffer, IQF library screening and kinetics; details: human, 37 °C, up to 30 min
[7] = tested on: Trypsin; assay: trypsin in 0.05 M Tris, 0.15 M NaCl, 0.01% Triton X100, pH 7.6; details: 37 °C, up to 30 min
[8] = tested on: caspase-10; assay: caspase-10 in caspase buffer supplemented with 1.0 M sodium citrate, IQF library screening and kinetics; details: human, 37 °C, up to 30 min
[9] = tested on: caspase-8; assay: caspase-8 in caspase buffer supplemented with 1.0 M sodium citrate, IQF library screening and kinetics; details: human, 37 °C, up to 30 min
[10] = tested on: caspase-9; assay: caspase-9 in caspase buffer supplemented with 1.0 M sodium citrate, IQF library screening and kinetics; details: human, 37 °C, up to 30 min
[11] = tested on: trypsin; assay: IQF substrate hydrolysis kinetics with trypsin; assay type: biochemical; details: for kcat/Km values: ACC-GGLSX*IVK(DNP)G substrates, residue named = P1, trypsin
Experimental: as §1, with “For the substrates with the new donor acceptor pair, ACC/DNP, the excitation wavelength was 355 nm, and the emission wavelength was 460 nm; for MCA/DNP, the corresponding values were 325 and 420 nm, respectively.” left out
Trypsin was assayed in a buffer containing 0.05 M Tris, 0.15 M NaCl, and 0.01% Triton X100 at pH 7.6. The enzyme was incubated with the assay buffer for 10 min at 37 °C prior to the substrate addition and the measurement. Eight internally quenched substrates were tested in the assay. The trypsin concentration for substrates containing Arg and Lys at P1 was 0.1 nM; for Arg(Me) substrates, the enzyme concentration was 30 nM; and for all other substrates, the enzyme concentration was 200 nM.

[12] = ACC/Lys(DNP) substrate, elastase 0.34 nM, ex 355/em 460 nm
[13] = ACC/Lys(DNP) substrate, caspase-3 1.0 nM, ex 355/em 460 nm
[14] = ACC/Lys(DNP) substrate, caspase-7 10 nM, ex 355/em 460 nm
[15] = ACC/Lys(DNP) substrate, caspase-8 20 nM, ex 355/em 460 nm
[16] = ACC-GGLS(P1)*IVK(DNP)G-NH2 hydrolysis by trypsin, trypsin 0.1 nM (Arg, Lys), 30 nM (Arg(Me)), 200 nM (all others), 0.05 M Tris, 0.15 M NaCl, 0.01% Triton X100 pH 7.6, 37 °C, SD <10% (Arg/Lys), <15% (modified)
[17] = MCA/Lys(DNP) substrate, elastase 1.4 nM, ex 325/em 420 nm
[18] = MCA/Lys(DNP) substrate, caspase-3 3.0 nM, ex 325/em 420 nm
[19] = MCA/Lys(DNP) substrate, caspase-7 30 nM, ex 325/em 420 nm
[20] = MCA/Lys(DNP) substrate, caspase-8 50 nM, ex 325/em 420 nm

T4 sequence (Q14790 217-374 limits assumed): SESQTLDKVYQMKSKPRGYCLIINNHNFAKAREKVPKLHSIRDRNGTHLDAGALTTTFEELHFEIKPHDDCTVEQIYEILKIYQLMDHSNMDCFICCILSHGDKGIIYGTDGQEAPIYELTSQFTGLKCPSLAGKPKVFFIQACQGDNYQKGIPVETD
T4 sequence (Q14790 385-479 limits assumed): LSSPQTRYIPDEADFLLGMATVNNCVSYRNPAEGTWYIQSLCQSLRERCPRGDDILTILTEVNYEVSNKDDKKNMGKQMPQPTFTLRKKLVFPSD

Substance: ACC-GAEPV*SLK(dnp)L-NH2 [ACC/Lys(DNP) internally quenched fluorescent substrate for human neutrophil elastase]
Km [1, 12]: 1.22 µM
kcat [1, 12]: 2.44 s⁻¹
kcat/KM [1, 12]: 2 006 000 M^−1s^−1

Substance: ACC-GDEVD*GVK(dnp)D-NH2 [ACC/Lys(DNP) internally quenched fluorescent substrate for caspases]
Km [2, 13]: 6.74 µM
kcat [2, 13]: 7.52 s⁻¹
kcat/KM [2, 13]: 1 116 000 M^−1s^−1
Km [3, 14]: 8.36 µM
kcat [3, 14]: 0.47 s⁻¹
kcat/KM [3, 14]: 56 800 M^−1s^−1
Km [4, 15]: 11 µM
kcat [4, 15]: 0.32 s⁻¹
kcat/KM [4, 15]: 29 400 M^−1s^−1

cleaved bond [5]: D-A
cleaved bond [6]: D-A
Substance: ACC-GDEVD/XKK(dnp)G-NH2 [DEVD/A]

cleaved bond [5]: D-G
cleaved bond [6]: D-G
Substance: ACC-GDEVD/XKK(dnp)G-NH2 [DEVD/G]

cleaved bond [5]: D-S
cleaved bond [6]: D-S
Substance: ACC-GDEVD/XKK(dnp)G-NH2 [DEVD/S]

cleaved bond [5]: E-S
cleaved bond [6]: E-S
Substance: ACC-GDEVE/XKK(dnp)G-NH2 [DEVE/S]

not cleaved [7]: No measurable hydrolysis
Substance: ACC-GGLS(P1)*IVK(DNP)G-NH2

cleaved bond [7]: Arginine-I
Substance: ACC-GGLS(P1)*IVK(DNP)G-NH2 [ACC-GGLS(P1)*IVK(DNP)G-NH2, P1 = Arginine]

cleaved bond [7]: Citrulline-I
Substance: ACC-GGLS(P1)*IVK(DNP)G-NH2 [ACC-GGLS(P1)*IVK(DNP)G-NH2, P1 = Citrulline]

cleaved bond [8]: D-A
cleaved bond [9]: D-A
cleaved bond [10]: D-A
Substance: ACC-GLEHD(G/A/S)KK(dnp)G-NH2 [LEHD/A]

cleaved bond [8]: D-G
cleaved bond [9]: D-G
cleaved bond [10]: D-G
Substance: ACC-GLEHD(G/A/S)KK(dnp)G-NH2 [LEHD/G]

cleaved bond [8]: D-S
cleaved bond [9]: D-S
cleaved bond [10]: D-S
Substance: ACC-GLEHD(G/A/S)KK(dnp)G-NH2 [LEHD/S]

cleaved bond [8]: E-A
cleaved bond [9]: E-A
cleaved bond [10]: E-A
Substance: ACC-GLEHE(G/A/S)KK(dnp)G-NH2 [LEHE/A]

cleaved bond [8]: E-G
cleaved bond [9]: E-G
cleaved bond [10]: E-G
Substance: ACC-GLEHE(G/A/S)KK(dnp)G-NH2 [LEHE/G]

cleaved bond [8]: E-S
cleaved bond [9]: E-S
cleaved bond [10]: E-S
Substance: ACC-GLEHE(G/A/S)KK(dnp)G-NH2 [LEHE/S]

KM [11, 16]: No measurable hydrolysis
kcat/KM [11, 16]: No measurable hydrolysis
kcat/Km values [11]: did not recognize
Substance: Alanine
kcat [11, 16]: No measurable hydrolysis

Substance: Arginine
Km [11, 16]: 2.5 µM
kcat [11, 16]: 24.1 s⁻¹
kcat/KM [11, 16]: 9 624 000 s^−1M^−1
kcat/Km values [11]: 9,624,000 M^−1s^−1

Km [11, 16]: 90.3 µM
kcat/KM [11, 16]: 4 s^−1M^−1
Substance: Citrulline
kcat [11, 16]: 0.000359 s⁻¹

Substance: Lysine
Km [11, 16]: 2.8 µM
kcat [11, 16]: 4.2 s⁻¹
kcat/KM [11, 16]: 1 500 000 s^−1M^−1
kcat/Km values [11]: 1,500,000 M^−1s^−1

Substance: MCA-GAEPV*SLK(dnp)L-NH2 [MCA/Lys(DNP) internally quenched fluorescent substrate for human neutrophil elastase]
Km [1, 17]: 2.27 µM
kcat [1, 17]: 2.58 s⁻¹
kcat/KM [1, 17]: 1 147 219 M^−1s^−1

Substance: MCA-GDEVD*GVK(dnp)D-NH2 [MCA/Lys(DNP) internally quenched fluorescent substrate for caspases]
Km [2, 18]: 4.67 µM
kcat [2, 18]: 11.24 s⁻¹
kcat/KM [2, 18]: 2 359 000 M^−1s^−1
Km [3, 19]: 6.17 µM
kcat [3, 19]: 0.68 s⁻¹
kcat/KM [3, 19]: 106 000 M^−1s^−1
Km [4, 20]: 11.7 µM
kcat [4, 20]: 0.32 s⁻¹
kcat/KM [4, 20]: 26 300 M^−1s^−1

Km [11, 16]: 21.9 µM
kcat/KM [11, 16]: 78 s^−1M^−1
Substance: Ornithine
kcat [11, 16]: 0.0017 s⁻¹
